The text below walks through data of patent US20250312323A1 (Cavion, Inc., priority 2018, published 2025).

What is called Cmax is the peak of the concentration-time curve.

Data set [1] is classed as in vivo. The note with it: rat NOAEL 300 mg/kg.
A short description of data set [2]: Single-dose crossover pharmacokinetics of IR, MR1 and MR2 capsules (8 mg). Format: in vivo, human. Further details: AUC72hr: unit not given beside the values. The conditions noted are these: plasma, following a single 8 mg dose of IR CX-8998.
The format of data set [3] is in vivo. The note with it: dog NOAEL 30 mg/kg.
Data set [4] has as its system harmaline-induced tremor model in rats. The note with it: 3 ascending doses per os; cited from earlier work.

Where “and” joins values, the source holds several entries; their conditions need not be identical. Equal entries are not always repeated. Where two headings read alike, the source gives them in different places.

Regarding `C=C(C)c1ccc(CC(=O)N[C@H](C)c2ccc(OCC(F)(F)F)cn2)cc1` [M01], the “Total safety margin, AUC24 hr (animal AUC / human estimated AUC at steady state, 10 mg BID)” value is listed as 13 fold in data set [1] (Day 90, female); 6.8 fold in data set [1] (Day 90, male); 5.6 fold in data set [3] (Day 90, female); 6.5 fold in data set [3] (Day 90, male). Further, the “Total safety margin, Css (animal Cmax / human estimated Css at steady state, 10 mg BID)” value in data set [1] (Day 90, female) was 21 fold; in data set [1] (Day 90, male), 13 fold; in data set [3] (Day 90, female), 8 fold and 8.0 fold; in data set [3] (Day 90, male), 10 fold. Moreover, in data set [2], the AUC72hr came out at 6876. Moreover, in data set [2], the Cmax stood at 124 nM.

`C[C@@H](NC(=O)Cc1ccc(C(C)(C)O)cc1)c1ccc(OCC(F)(F)F)cn1` [M02] registered a peak concentration (Cmax) in data set [2] of 122 nM.

`CC1(C)C[C@@H](CN2CCC(F)(CNC(=O)c3cc(Cl)cc(Cl)c3)CC2)CCO1` [TTA-P2]: in data set [4], the harmaline-induced tremor result is reported as “dose-dependent response” and the “physiologic tremor before administration of harmaline” value was “dose-dependent response to a reduction in physiologic tremor”.
